Data from US4724238A, “Method of treating inflammatory diseases with labdan derivatives” (Hoechst Aktiengesellschaft, priority 1985, dated 1988).

What was measured:
[1] = test system: Adjuvant-induced arthritis in rats; assay: Adjuvant-induced arthritis test in rats, developing arthritis; format: in vivo, rat (Charles Foster, female); conditions: i.p., once daily for 21 days
rat ear inflammation = assay: Croton oil-induced local inflammation test in rats (topical); format: in vivo, rat (Charles Foster's strain); conditions: applied with the irritant, 4 hours
Method: (b) Croton oil-induced local inflammation test in rats A volume of 0.05 ml of croton oil irritant (2.0 ml pyridine, 0.5 ml distilled water+7.4 ml diethyl ether+0.1 ml croton oil) is applied under ether anaesthesia to the anterior and posterior sides of the ear of rats weighing 45 to 60 g (Charles Foster's strain) with the help of a micro glass syringe and a blunt 20 gauge needle/Tonelli G., Thibault L. and Ringer I, Endocrinology 77, 625-634 (1965)/. The right untreated ear serves as control. The drug treated group receives different concentrations of compounds along with the irritant. Four hours later the animals are sacrificed. The ears are removed and punched with an 8 mm diameter cork borer. The punched portions are immediately weighed. The increase in the weight of ear is determined by the difference in the weight between the left and right ear. The topical anti-inflammatory activity of the test compound is expressed as the percent inhibition of the increase in ear weight of the irritant treated ear according to the following formula [formula] The ED50 value is calculated from the dose response curve. Six animals are used per group.

rat paw oedema = assay: Acute carrageenin-induced rat paw oedema test (systemic); format: in vivo, rat (Charles Foster, male); conditions: ip, paw volume at 3 and 6 hours after carrageenin
Method: (a) Acute carrageenin-induced rat paw oedema test Charles Foster male rats (120-150 g) are fasted for 18 hrs. with water ad libitum. The test compound suspended in 0.5% carboxymethyl cellulose (CMC) is given intraperitoneally. The control group receives 0.5% CMC suspension. 0.05 ml of the 0.5% carrageenin suspension is injected subcutaneously into the planter region of the left hind paw. The paw volume is determined before carrageenin injection and at 3 hours and 6 hours after injection using a Maclab volume differential meter. The percentage decrease in paw volume is calculated with the following formula: [formula] The ED50 value is calculated from the dose-response curve. Six animals are used per group.

[2] = test system: Adjuvant-induced arthritis in rats; assay: Adjuvant-induced arthritis test in rats, established arthritis; format: in vivo, rat (Charles Foster, female); conditions: i.p., once daily from day 15 to day 21
[3] = test system: Acetic acid induced writhing in mice; assay: Analgesic activity, acetic acid writhing test; format: in vivo, mouse (male); conditions: Mus musculus, sc, 30 minutes before 0.2 ml of 3% acetic acid i.p.; observed 15 minutes
Method: Analgesic activity--Acetic acid writhing test
A test compound suspended in 0.5% carboxy methyl cellulose is given subcutaneously to the male mice (20-25 g). The control group received only the 0.5% CMC. After 30 minutes, 0.2 ml of 3% acetic acid is administered intraperitoneally. The animals are observed for 15 minutes for a characteristic stretching or writhing syndrome which is indicative of pain induced by acetic acid. Six animals are used per group.
In the test group, mice which show less than or equal to 50 percent of the mean control writhing value are considered to be protected. (Blumberg et al. Proc. Soc. Exp. Biol. Med., 118, 763-766, 1965). The percent analgesic activity is calculated as follows: [formula] The ED50 value is calculated from the dose response curve.

Row | SMILES | % inhibition of paw volume, developing arthritis ([1]; 2.5 mg/kg) | ED50, croton oil induced rat ear inflammation (rat ear inflammation) | ED50 (rat paw oedema) | % inhibition of paw volume, established arthritis ([2]; 2.4 mg/kg) | % inhibition of paw volume, developing arthritis ([1]; 3.0 mg/kg) | % inhibition of paw volume, established arthritis ([2]; 3.0 mg/kg) | ED50 [3]
1 | C=C[C@@]1(C)CC(=O)[C@]2(O)[C@@]3(C)[C@@H](O)CCC(C)(C)[C@@H]3[C@H](O)[C@H](OC(C)=O)[C@@]2(C)O1 [Forskolin, 7β-acetoxy-8,13-epoxy-1α,6β,9α-trihydroxy-labd-14-en-11one] | 23% | 1.15 mg/ear | 4.8 mg/kg | 27% |  |  | 
2 | C=C[C@@]1(C)CC(=O)[C@@H]2[C@@]3(C)CCCC(C)(C)[C@@H]3[C@H](O)[C@H](OC(C)=O)[C@@]2(C)O1 [1,9-Dideoxyforskolin, 7β-acetoxy-1,9-dideoxy-8,13-epoxy-6β-hydroxy-labd-14-en-11-one] |  | 1.6 mg/ear | 2.2 mg/kg |  | 62% | 30% | 9 mg/kg
